Assay in all cases: SelectScreen Z-LYTE kinase activity assay (SI Table 6)
Common to all, as to type: biochemical

The target of test [1] is protein kinases of the Z-LYTE panel (Homo sapiens, UniProt P17948). The procedure, abridged: (§1)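 Percent effect values derive from SelectScreen Adapta, Lantha and Z-LYTE assays in which 1938 was present at 1 μM, spanning 133 protein kinases and 7 lipid kinases.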
Test [2] addresses T1, protein kinases of the Z-LYTE panel (Homo sapiens, UniProt O00141).
T1 sequence (O00141 1-431): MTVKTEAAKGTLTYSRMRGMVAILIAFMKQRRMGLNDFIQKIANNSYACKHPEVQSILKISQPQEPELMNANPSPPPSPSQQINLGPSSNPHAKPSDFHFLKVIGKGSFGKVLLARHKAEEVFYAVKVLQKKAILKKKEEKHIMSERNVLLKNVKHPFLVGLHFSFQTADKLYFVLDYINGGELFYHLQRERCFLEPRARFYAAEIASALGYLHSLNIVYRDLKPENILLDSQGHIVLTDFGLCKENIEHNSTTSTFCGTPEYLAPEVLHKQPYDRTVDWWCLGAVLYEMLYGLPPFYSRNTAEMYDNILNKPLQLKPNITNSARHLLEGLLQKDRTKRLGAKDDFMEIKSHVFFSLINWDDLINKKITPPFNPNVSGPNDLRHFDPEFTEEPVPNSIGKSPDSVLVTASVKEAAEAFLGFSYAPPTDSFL
Summed up:
as §1

The target in test [3] is protein kinases of the Z-LYTE panel (Homo sapiens, UniProt P54756). The procedure, abridged:
as §1

For test [4], the target named is protein kinases of the Z-LYTE panel (Homo sapiens, UniProt P31751). Summed up: as §1
The target of test [5] is T2, protein kinases of the Z-LYTE panel (Homo sapiens, UniProt O14757).
T2 sequence (O14757 1-476): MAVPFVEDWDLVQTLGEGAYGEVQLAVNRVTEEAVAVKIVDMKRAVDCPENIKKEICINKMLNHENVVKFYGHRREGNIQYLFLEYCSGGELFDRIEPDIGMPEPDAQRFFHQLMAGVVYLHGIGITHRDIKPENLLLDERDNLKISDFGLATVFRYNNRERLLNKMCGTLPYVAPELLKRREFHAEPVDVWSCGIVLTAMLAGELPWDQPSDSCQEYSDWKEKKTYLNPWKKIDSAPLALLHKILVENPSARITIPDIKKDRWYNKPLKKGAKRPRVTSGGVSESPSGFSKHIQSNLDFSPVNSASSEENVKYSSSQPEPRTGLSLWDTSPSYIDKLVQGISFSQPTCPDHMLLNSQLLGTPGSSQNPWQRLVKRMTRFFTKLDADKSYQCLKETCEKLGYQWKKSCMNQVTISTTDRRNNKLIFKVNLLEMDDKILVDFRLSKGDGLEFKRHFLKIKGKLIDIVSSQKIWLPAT
The procedure, abridged: as §1

Test [6] has as its target T3, protein kinases of the Z-LYTE panel (Homo sapiens, UniProt O15530).
T3 sequence (O15530 1-556): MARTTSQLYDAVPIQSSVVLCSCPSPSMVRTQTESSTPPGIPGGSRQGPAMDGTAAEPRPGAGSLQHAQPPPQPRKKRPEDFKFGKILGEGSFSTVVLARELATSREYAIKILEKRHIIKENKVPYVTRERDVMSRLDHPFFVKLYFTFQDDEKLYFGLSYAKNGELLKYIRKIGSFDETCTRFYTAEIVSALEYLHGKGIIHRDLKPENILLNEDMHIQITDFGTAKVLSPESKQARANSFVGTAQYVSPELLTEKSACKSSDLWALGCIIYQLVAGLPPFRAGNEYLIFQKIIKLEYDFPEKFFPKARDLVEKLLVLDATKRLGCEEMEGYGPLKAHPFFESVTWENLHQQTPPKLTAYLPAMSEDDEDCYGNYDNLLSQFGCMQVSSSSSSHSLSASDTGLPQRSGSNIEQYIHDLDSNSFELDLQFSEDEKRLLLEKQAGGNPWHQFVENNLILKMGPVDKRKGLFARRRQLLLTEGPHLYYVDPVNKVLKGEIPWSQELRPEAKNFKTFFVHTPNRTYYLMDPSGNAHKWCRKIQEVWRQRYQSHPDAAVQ
As to conditions: PDK1, 1000 nM, [ATP] 100 μM. Summed up: as §1

Here are results for one compound from publication PMC7614683, “A small molecule PI3Kα activator for cardioprotection and neuroregeneration” (Nature, 2023).

For orientation: inhibition means the drop in the measured response relative to a control, in per cent.

Structures are written as SMILES. Read-outs that look alike come from different tables or passages of the source.

Sequence of protein kinases of the Z-LYTE panel (Homo sapiens, UniProt P17948) (P17948 27-1338): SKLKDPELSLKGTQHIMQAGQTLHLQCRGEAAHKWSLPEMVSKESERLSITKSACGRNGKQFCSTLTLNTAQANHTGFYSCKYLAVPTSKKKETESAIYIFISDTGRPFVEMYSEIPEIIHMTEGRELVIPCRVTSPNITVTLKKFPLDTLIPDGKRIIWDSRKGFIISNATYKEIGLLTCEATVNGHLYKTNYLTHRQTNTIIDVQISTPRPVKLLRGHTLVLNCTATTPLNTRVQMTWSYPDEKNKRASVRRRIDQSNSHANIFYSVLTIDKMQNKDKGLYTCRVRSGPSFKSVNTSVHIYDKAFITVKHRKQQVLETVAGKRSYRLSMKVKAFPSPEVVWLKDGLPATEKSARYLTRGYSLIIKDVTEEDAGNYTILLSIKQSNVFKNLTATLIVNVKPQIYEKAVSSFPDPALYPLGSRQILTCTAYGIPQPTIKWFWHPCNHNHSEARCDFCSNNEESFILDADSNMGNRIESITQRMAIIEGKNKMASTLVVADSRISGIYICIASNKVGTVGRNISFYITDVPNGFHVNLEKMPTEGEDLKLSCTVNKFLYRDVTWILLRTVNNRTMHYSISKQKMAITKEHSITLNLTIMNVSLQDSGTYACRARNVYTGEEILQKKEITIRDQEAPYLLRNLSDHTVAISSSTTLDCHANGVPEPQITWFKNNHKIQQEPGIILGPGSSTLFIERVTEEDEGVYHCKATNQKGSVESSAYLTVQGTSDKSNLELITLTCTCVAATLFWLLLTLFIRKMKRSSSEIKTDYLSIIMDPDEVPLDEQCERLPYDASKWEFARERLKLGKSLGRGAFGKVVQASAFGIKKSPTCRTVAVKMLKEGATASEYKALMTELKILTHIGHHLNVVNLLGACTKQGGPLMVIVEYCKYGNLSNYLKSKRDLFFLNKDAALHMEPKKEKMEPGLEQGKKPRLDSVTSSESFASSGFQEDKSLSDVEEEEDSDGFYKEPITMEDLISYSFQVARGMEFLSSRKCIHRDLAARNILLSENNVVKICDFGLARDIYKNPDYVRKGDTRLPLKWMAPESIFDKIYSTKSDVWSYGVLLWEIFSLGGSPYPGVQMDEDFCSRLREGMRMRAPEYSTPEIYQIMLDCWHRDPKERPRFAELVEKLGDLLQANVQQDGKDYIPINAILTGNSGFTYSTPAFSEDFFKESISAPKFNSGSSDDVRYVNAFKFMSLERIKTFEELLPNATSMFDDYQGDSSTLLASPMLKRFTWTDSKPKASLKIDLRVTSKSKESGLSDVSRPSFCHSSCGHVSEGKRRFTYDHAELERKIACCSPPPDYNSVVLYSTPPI
Sequence of protein kinases of the Z-LYTE panel (Homo sapiens, UniProt P54756) (P54756 25-1037): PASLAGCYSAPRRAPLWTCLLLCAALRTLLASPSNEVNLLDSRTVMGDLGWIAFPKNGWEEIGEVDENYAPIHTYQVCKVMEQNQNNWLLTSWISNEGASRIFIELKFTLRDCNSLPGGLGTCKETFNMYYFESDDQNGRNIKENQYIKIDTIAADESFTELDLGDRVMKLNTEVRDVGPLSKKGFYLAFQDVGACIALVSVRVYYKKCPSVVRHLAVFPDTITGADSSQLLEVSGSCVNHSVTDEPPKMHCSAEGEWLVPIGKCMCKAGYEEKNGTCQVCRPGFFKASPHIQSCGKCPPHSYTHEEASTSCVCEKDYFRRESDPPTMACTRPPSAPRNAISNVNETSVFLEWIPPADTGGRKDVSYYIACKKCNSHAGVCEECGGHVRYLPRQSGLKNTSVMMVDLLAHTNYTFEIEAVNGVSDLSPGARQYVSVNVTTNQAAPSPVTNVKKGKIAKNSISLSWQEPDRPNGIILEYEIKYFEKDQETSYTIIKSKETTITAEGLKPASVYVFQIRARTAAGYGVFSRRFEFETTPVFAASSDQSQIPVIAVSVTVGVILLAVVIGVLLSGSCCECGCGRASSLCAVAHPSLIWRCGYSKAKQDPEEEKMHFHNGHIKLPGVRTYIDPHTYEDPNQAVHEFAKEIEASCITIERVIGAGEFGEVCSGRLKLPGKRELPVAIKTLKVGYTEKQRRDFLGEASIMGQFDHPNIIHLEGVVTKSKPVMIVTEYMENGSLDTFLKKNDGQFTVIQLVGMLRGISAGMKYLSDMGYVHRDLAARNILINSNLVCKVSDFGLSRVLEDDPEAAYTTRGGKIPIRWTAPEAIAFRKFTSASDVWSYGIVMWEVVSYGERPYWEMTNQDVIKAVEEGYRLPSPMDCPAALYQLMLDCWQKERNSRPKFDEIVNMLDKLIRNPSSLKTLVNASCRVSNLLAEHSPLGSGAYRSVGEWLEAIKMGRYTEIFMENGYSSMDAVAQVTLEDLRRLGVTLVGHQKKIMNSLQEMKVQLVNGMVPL
Sequence of protein kinases of the Z-LYTE panel (Homo sapiens, UniProt P31751) (P31751 whole entry): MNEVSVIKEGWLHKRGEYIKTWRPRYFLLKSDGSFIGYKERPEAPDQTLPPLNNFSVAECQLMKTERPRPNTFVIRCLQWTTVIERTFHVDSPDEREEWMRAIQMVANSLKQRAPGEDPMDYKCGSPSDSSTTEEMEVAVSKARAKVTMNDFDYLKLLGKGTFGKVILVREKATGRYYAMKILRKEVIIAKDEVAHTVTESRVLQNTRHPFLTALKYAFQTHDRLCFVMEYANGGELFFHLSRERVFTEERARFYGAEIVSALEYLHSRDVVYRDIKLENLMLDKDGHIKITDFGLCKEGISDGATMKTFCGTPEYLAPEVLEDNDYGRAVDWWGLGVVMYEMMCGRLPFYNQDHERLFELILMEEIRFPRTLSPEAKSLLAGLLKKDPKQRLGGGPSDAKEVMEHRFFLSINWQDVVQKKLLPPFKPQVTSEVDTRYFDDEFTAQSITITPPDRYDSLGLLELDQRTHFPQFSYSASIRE

As for `CCN1CCN(c2ccc(Nc3cc(Nc4cccc5c4N(C(C)=O)CC5)ccn3)cc2)CC1` [Compound 1938], the inhibition at 1 µM in test [1] (read-out: % Inhibition Point 1) came to 1.74%; in test [1] (read-out: % Inhibition Point 2), 1.66%; in test [1] (read-out: % Inhibition mean), 1.7%; in test [2] (read-out: % Inhibition Point 1), 4.46%; in test [2] (read-out: % Inhibition Point 2), 3.55%; in test [2] (read-out: % Inhibition mean) it was 4%. Besides, the inhibition at 1 µM in test [3] (read-out: % Inhibition Point 1) amounted to 4.24%; in test [3] (read-out: % Inhibition Point 2), 1.52%; in test [3] (read-out: % Inhibition mean) it was 3%; in test [4] (read-out: % Inhibition Point 1), 0.378%; in test [4] (read-out: % Inhibition Point 2), 0.753%; in test [4] (read-out: % Inhibition mean) it was 0.565%. Besides, the inhibition at 1 µM in test [5] (read-out: % Inhibition Point 1) was 2%; in test [5] (read-out: % Inhibition Point 2) it was -3.79%; in test [5] (read-out: % Inhibition mean) it was -0.889%; in test [6] (read-out: % Inhibition Point 1), 6%; in test [6] (read-out: % Inhibition Point 2), 7%; in test [6] (read-out: % Inhibition mean), 6%.
